Ki data for 28 compounds are collected here from patent US20060166985A1, “Pyrrolydin-2-one derivatives as inhibitors of thrombin and factor xa” (priority 2002, published 2006).

As a reminder, the pKi is the Ki on a negative log10 scale, so that one unit is a factor of ten.

pKi: −log10 of the molar value.

For the test, the target named is human Thrombin (Homo sapiens, UniProt P00734). The test is described as follows: In vitro assay for inhibition of Thrombin (chromogenic or fluorogenic assay). It counts as biochemical. To be noted: Example 2 chromogenic assay, other Examples fluorogenic assay, read-out: thrombin inhibitory Ki. As to the method:
Thrombin inhibitory activity is measured by the ability to inhibit human α-thrombin in a chromogenic assay using N-p-tosyl-gly-pro-lys p-nitroanilide as the chromogenic substrate, or in a fluorogenic assay using Rhodamine 110, bis-(CBZ-L-valyl-L-prolyl-L-arginine amide) as the fluorogenic substrate.
The compound was diluted from a 10 mM stock solution in dimethylsulfoxide at appropriate concentrations. Assay was performed at room temperature using buffer consisting of: 50 mM HEPES, 150 mM NaCl, 5 mM CaCl2, 0.1% PEG, pH 7.4. containing human Thrombin (final conc. of 1 nM). Compound and enzyme were preincubated for 15 min prior to addition of the substrate (final conc. of 100 μM). The reaction was stopped after 30 min with the addition of soybean trypsin inhibitor or H-D-PHE-PRO-ARG-Chloromethylketone. […] To obtain IC50 values the data were analysed using ActivityBase® and XLfit®.
Compounds were diluted from a 10 mM stock solution in dimethylsulfoxide at appropriate concentrations. Assay was performed at room temperature using buffer consisting of: 50 mM HEPES, 150 mM NaCl, 5 mM CaCl2, 0.1% PEG, pH 7.4. containing human Thrombin (final conc. Of 0.2 nM). Compound and enzyme were preincubated for 15 min prior to addition of the substrate (final conc. of 10 μM). The reaction was stopped after 3 hrs with the addition of H-D-PHE-PRO-ARG-Chloromethylketone. […] To obtain IC50 values the data were analysed using ActivityBase® and XLfit®.
`C/C(=C\S(=O)(=O)N[C@H]1CCN([C@@H](CC(=O)OCc2ccccc2)C(=O)N2CCOCC2)C1=O)c1ccc(Cl)s1` [Example 22, Benzyl (3S)-3-[(3S)-3-({[(1E)-2-(5-Chlorothien-2-yl)prop-1-enyl]sulfonyl}amino)-2-oxopyrrolidin-1-yl]-4-morpholin-4-yl-4-oxobutanoate]: the pKi is greater than 8.00. Regarding `O=C([C@H](Cc1cccs1)N1CC[C@H](NS(=O)(=O)CCc2ccc(Cl)s2)C1=O)N1CCOCC1` [Example 23, 2-(5-chlorothien-2-yl)-N-{(3S)-1-[(1S)-2-morpholin-4-yl-2-oxo-1-(thien-2-ylmethyl)ethyl]-2-oxopyrrolidin-3-yl}ethanesulfonamide], the pKi was greater than 8.00. Turning to `O=C([C@H](Cc1cccs1)N1CC[C@H](NS(=O)(=O)CCc2ccc(Cl)cc2)C1=O)N1CCOCC1` [Example 24, 2-(4-chlorophenyl)-N-{(3S)-1-[(1S)-2-morpholin-4-yl-2-oxo-1-(thien-2-ylmethyl)ethyl]-2-oxopyrrolidin-3-yl}ethanesulfonamide], the pKi is greater than 7.60. As for `C[C@@H](C(=O)N1CCOCC1)N1CC[C@H](NS(=O)(=O)CCc2ccc(Cl)cc2F)C1=O` [Example 25, 2-(4-chloro-2-fluorophenyl)-N-{(3S)-1-[(1S)-1-methyl-2-morpholin-4-yl-2-oxoethyl]-2-oxopyrrolidin-3-yl}ethanesulfonamide], the pKi is greater than 6.70.

Regarding `CC[C@@H](C(=O)N1CCOCC1)N1CC[C@H](NS(=O)(=O)CCc2ccc(Br)cc2)C1=O` [Example 26, 2-(4-bromophenyl)-N-{(3S)-1-[(1S)-1-(morpholin-4-ylcarbonyl)propyl]-2-oxopyrrolidin-3-yl}ethanesulfonamide], the pKi was greater than 7.00. On to `C[C@@H](C(=O)N1CCOCC1)N1CC[C@H](NS(=O)(=O)CC(F)(F)c2ccc(Cl)cc2)C1=O` [Example 27, 2-(4-chlorophenyl)-2,2-difluoro-N-{(3S)-1-[(1S)-1-methyl-2-morpholin-4-yl-2-oxoethyl]-2-oxopyrrolidin-3-yl}ethanesulfonamide], for which the negative logarithm of the Ki (pKi) is greater than 7.60.

With `C[C@@H](C(=O)N1CCOCC1)N1CC[C@H](NS(=O)(=O)/C=C(\F)c2ccc(Cl)cc2)C1=O` [Example 28, (Z)-2-(4-chlorophenyl)-2-fluoro-N-{(3S)-1-[(1S)-1-methyl-2-morpholin-4-yl-2-oxoethyl]-2-oxopyrrolidin-3-yl}ethenesulfonamide], the pKi is greater than 7.60.

Consider `CC[C@H](C)[C@@H](C(=O)N1CCOCC1)N1CC[C@H](NS(=O)(=O)CC(F)(F)c2ccc(Cl)cc2)C1=O` [Example 29, 2-(4-chlorophenyl)-2,2-difluoro-N-{(3S)-1-[(1S,2S)-2-methyl-1-(morpholin-4-ylcarbonyl)butyl]-2-oxopyrrolidin-3-yl}ethanesulfonamide], for which the pKi was greater than 7.60. For `CC[C@H](C)[C@@H](C(=O)N1CCOCC1)N1CC[C@H](NS(=O)(=O)/C=C(\F)c2ccc(Cl)cc2)C1=O` [Example 30, (Z)-2-(4-chlorophenyl)-2-fluoro-N-{(3S)-1-[(1S,2S)-2-methyl-1-(morpholin-4-ylcarbonyl)butyl]-2-oxopyrrolidin-3-yl}ethenesulfonamide], the negative-log Ki (pKi) is greater than 6.70. For `O=C(C[C@@H](C(=O)N1CCOCC1)N1CC[C@H](NS(=O)(=O)CCc2ccc(Cl)s2)C1=O)N1CCOCC1` [Example 31], the negative-log Ki (pKi) was greater than 6.70. On to `CN(C)C(=O)C[C@@H](C(=O)N1CCOCC1)N1CC[C@H](NS(=O)(=O)CCc2ccc(Cl)s2)C1=O` [Example 32], for which the pKi was greater than 7.30. As for `C[C@@H](C(=O)N1CCOCC1)N1CC[C@H](NS(=O)(=O)CCc2ccc(Br)cc2)C1=O` [Example 33, 2-(4-bromophenyl)-N-{(3S)-1-[(1S)-1-methyl-2-morpholin-4-yl-2-oxoethyl]-2-oxopyrrolidin-3-yl}ethanesulfonamide], the pKi was greater than 7.60. Turning to `CCOC(=O)CN([C@H]1CCN([C@@H](C)C(=O)N2CCOCC2)C1=O)S(=O)(=O)CCc1ccc(Cl)s1` [Example 34, Ethyl N-{[2-(5-chlorothien-2-yl)ethyl]sulfonyl}-N-{(3S)-1-[(1S)-1-methyl-2-morpholin-4-yl-2-oxoethyl]-2-oxopyrrolidin-3-yl}glycinate], the pKi is greater than 7.60. Take `COC(=O)CN([C@H]1CCN([C@@H](C)C(=O)N2CCOCC2)C1=O)S(=O)(=O)CCc1ccc(Cl)s1` [Example 35, Methyl N-{[2-(5-chlorothien-2-yl)ethyl]sulfonyl}-N-{(3S)-1-[(1S)-1-methyl-2-morpholin-4-yl-2-oxoethyl]-2-oxopyrrolidin-3-yl}glycinate]: the pKi was greater than 7.60.

Consider `CC(C)C[C@@H](C(=O)N1CCOCC1)N1CC[C@H](NS(=O)(=O)CCc2ccc(Cl)s2)C1=O` [Example 37, 2-(5-chlorothien-2-yl)-N-{(3S)-1-[(1S)-3-methyl-1-(morpholin-4-ylcarbonyl)butyl]-2-oxopyrrolidin-3-yl}ethanesulfonamide], for which the pKi was greater than 7.00.

Turning to `CC[C@H](C)[C@@H](C(=O)N1CCOCC1)N1CC[C@H](N(C)S(=O)(=O)CCc2ccc(Cl)s2)C1=O` [Example 38, 2-(5-chlorothien-2-yl)-N-methyl-N-{(3S)-1-[(1S,2S)-2-methyl-1-(morpholin-4-ylcarbonyl)butyl]-2-oxopyrrolidin-3-yl}ethanesulfonamide], the pKi is greater than 8.00. Consider `CC[C@H](C)[C@@H](C(=O)N1CCOCC1)N1CC[C@H](N(CC(=O)NC)S(=O)(=O)CCc2ccc(Cl)s2)C1=O` [Example 39, N^2-{[2-(5-chlorothien-2-yl)ethyl]sulfonyl}-N^1-methyl-N^2-{(3S)-1-[(1S,2S)-2-methyl-1-(morpholin-4-ylcarbonyl)butyl]-2-oxopyrrolidin-3-yl}glycinamide], for which the pKi was greater than 7.60. `CC[C@H](C)[C@@H](C(=O)N1CCOCC1)N1CC[C@H](N(CC(=O)N(C)C)S(=O)(=O)CCc2ccc(Cl)s2)C1=O` [Example 40, N^2-{[2-(5-chlorothien-2-yl)ethyl]sulfonyl)-N^1,N^1-dimethyl-N^2-{(3S)-1-[(1S,2S)-2-methyl-1-(morpholin-4-ylcarbonyl)butyl]-2-oxopyrrolidin-3-yl}glycinamide]: the pKi is greater than 8.00.

Regarding `C[C@@H](C(=O)N1CCOCC1)N1CC[C@H](NS(=O)(=O)/C=C(/c2ccc(Cl)s2)C(F)(F)F)C1=O` [Example 41, (1E)-2-(5-chlorothien-2-yl)-3,3,3-trifluoro-N-{(3S)-1-[(1S)-1-methyl-2-morpholin-4-yl-2-oxoethyl]-2-oxopyrrolidin-3-yl}prop-1-ene-1-sulfonamide], the pKi was greater than 7.00. As for `C[C@@H](C(=O)N1CCOCC1)N1CC[C@H](NS(=O)(=O)CCc2ccc(Cl)cc2Cl)C1=O` [Example 42, 2-(2,4-dichlorophenyl)-N-{(3S)-1-[(1S)-1-methyl-2-morpholin-4-yl-2-oxoethyl]-2-oxopyrrolidin-3-yl}ethanesulfonamide], the negative logarithm of the Ki (pKi) is greater than 6.70.

With `CC(C)[C@@H](C(=O)N1CCOCC1)N1CC[C@H](NS(=O)(=O)CCc2ccc(Cl)cc2)C1=O` [Example 45, 2-(4-chlorophenyl)-N-{(3S)-1-[(1S)-2-methyl-1-(morpholin-4-ylcarbonyl)propyl]-2-oxopyrrolidin-3-yl}ethanesulfonamide], the negative logarithm of the Ki (pKi) was greater than 7.30. Turning to `O=C(O)C[C@@H](C(=O)N1CCOCC1)N1CC[C@H](NS(=O)(=O)CCc2ccc(Cl)s2)C1=O` [Example 46], the pKi is greater than 6.70. With `C[C@@H](C(=O)N1CCOCC1)N1CC[C@H](NS(=O)(=O)CCc2ccc(Cl)cn2)C1=O` [Example 47, 2-(5-chloro-2-pyridinyl)-N-{(3S)-1-[(1S)-1-methyl-2-(4-morpholinyl)-2-oxoethyl]-2-oxo-3-pyrrolidinyl}ethanesulfonamide], the pKi is greater than 7.00.

With `CC[C@H](C)[C@@H](C(=O)N1CCOCC1)N1CC[C@H](NS(=O)(=O)CCc2ccc(Cl)cn2)C1=O` [Example 48, 2-(5-chloro-2-pyridinyl)-N-{(3S)-1-[(1S,2S)-2-methyl-1-(4-morpholinylcarbonyl)butyl]-2-oxo-3-pyrrolidinyl}ethanesulfonamide], the pKi was greater than 7.60. The same measure for `CCOC[C@@H](C(=O)N1CCOCC1)N1CC[C@H](NS(=O)(=O)CCc2ccc(Cl)cn2)C1=O` [Example 49, 2-(5-chloro-2-pyridinyl)-N-{(3S)-1-[(1S)-1-[(ethyloxy)methyl]-2-(4-morpholinyl)-2-oxoethyl]-2-oxo-3-pyrrolidinyl}ethanesulfonamide]: greater than 7.60. `COC[C@@H](C(=O)N1CCOCC1)N1CC[C@H](NS(=O)(=O)CCc2ccc(Cl)cn2)C1=O` [Example 50, 2-(5-chloro-2-pyridinyl)-N-{(3S)-1-[(1S)-1-[(methyloxy)methyl]-2-(4-morpholinyl)-2-oxoethyl]-2-oxo-3-pyrrolidinyl}ethanesulfonamide]: the pKi was greater than 6.70. In the case of `CC[C@H](C)[C@@H](C(=O)N1CCOCC1)N1CC[C@H](NS(=O)(=O)CC(=O)c2ccc(Cl)cc2)C1=O` [Example 51, 2-(4-chlorophenyl)-N-{(3S)-1-[(1S,2S)-2-methyl-1-(4-morpholinylcarbonyl)butyl]-2-oxo-3-pyrrolidinyl}-2-oxoethanesulfonamide], the negative-log Ki (pKi) is greater than 7.30. As for `COC[C@@H](C(=O)N1CCOCC1)N1CC[C@H](NS(=O)(=O)CC(=O)c2ccc(Cl)cc2)C1=O` [Example 52], the figure is greater than 7.30.
